Assay results reported in paper PMC11538350, “Synthetic studies on the tetrasubstituted D-ring of cystobactamids lead to potent terephthalic acid antibiotics” (Communications Chemistry, 2024).
Converted amounts (≈) assume the structure as drawn.

Columns and labels:
E. ae. CIP 106754 = assay: MIC assay; type: cell-based, Enterobacter aerogenes; conditions: Klebsiella aerogenes, CIP106754, read-out: MIC E. ae. CIP 106754
Protocol: (§1) All cystobactamids were evaluated in MIC-assays on a panel of representative ESKAPE strains with focus on A. baumannii (Tables 1 and 2). Compared to our previous work[10],[17],[18], we specifically included more challenging test strains with known resistances against gyrase inhibitors.
(§2) 2.1 Materials and Methods
(§3) Strains were cultivated according to standard procedures. Bacterial cryo-cultures were
(§4) resuspended into fresh MHBII (cation adjusted) medium. The resuspension
(§5) assay plate (Corning, #3788).
(§6) in parallel as a positive control. […]

A. baum. ATCC BAA-1710 = assay: MIC assay; type: cell-based; conditions: Acinetobacter baumannii, ATCCBAA1710; read-out: MIC A. baum. ATCC BAA-1710
Protocol: as §1, §2, §3, §4, §5, §6

A. baum. CIP-105742 = assay: MIC assay; type: cell-based; conditions: Acinetobacter baumannii, CIP105742; read-out: MIC A. baum. CIP-105742
Protocol: as §1, §2, §3, §4, §5, §6

A. baum. CIP-107292 = assay: MIC assay; type: cell-based; conditions: Acinetobacter baumannii, CIP107292; read-out: MIC A. baum. CIP-107292
Protocol: as §1, §2, §3, §4, §5, §6

A. baum. DSM-30008 = assay: MIC assay; type: cell-based; conditions: Acinetobacter baumannii, DSM30008; reference strain; read-out: MIC A. baum. DSM-30008
Protocol: as §1, §2, §3, §4, §5, §6

A. baum. R835 = assay: MIC assay; type: cell-based; conditions: Acinetobacter baumannii; read-out: MIC A. baum. R835
Protocol: as §1, §2, §3, §4, §5, §6

E. cloacae ATCC BAA-2468 = assay: MIC assay; type: cell-based; conditions: Enterobacter cloacae, ATCCBAA2468; read-out: MIC E. cloacae ATCC BAA-2468
Protocol: as §1, §2, §3, §4, §5, §6

E. coli ATCC-25922 = assay: MIC assay; type: cell-based; conditions: Escherichia coli, ATCC25922; reference strain; read-out: MIC E. coli ATCC-25922
Protocol: as §1, §2, §3, §4, §5, §6

E. coli LM705 = assay: MIC assay; type: cell-based; conditions: Escherichia coli, LM705, read-out: MIC E. coli LM705
Protocol: as §1, §2, §3, §4, §5, §6

K. pneum. CIP-104298 = assay: MIC assay; type: cell-based; conditions: Klebsiella pneumoniae, CIP104298; reference strain; read-out: MIC K. pneum. CIP-104298
Protocol: as §1, §2, §3, §4, §5, §6

K. pneum. KP10581 = assay: MIC assay; type: cell-based; conditions: Klebsiella pneumoniae; read-out: MIC K. pneum. KP10581
Protocol: as §1, §2, §3, §4, §5, §6

K. pneum. R-1525 = assay: MIC assay; type: cell-based; conditions: Klebsiella pneumoniae; read-out: MIC K. pneum. R-1525
Protocol: as §1, §2, §3, §4, §5, §6

P. ae. PA14 = assay: MIC assay; type: cell-based; conditions: Pseudomonas aeruginosa, PA14; reference strain; read-out: MIC P. ae. PA14
Protocol: as §1, §2, §3, §4, §5, §6

P. ae. PA14ΔmexAB = assay: MIC assay; type: cell-based; conditions: Pseudomonas aeruginosa, read-out: MIC P. ae. PA14ΔmexAB
Protocol: as §1, §2, §3, §4, §5, §6

S. aur. ATCC-29213 = assay: MIC assay; type: cell-based; conditions: Staphylococcus aureus, ATCC29213; reference strain; read-out: MIC S. aur. ATCC-29213
Protocol: as §1, §2, §3, §4, §5, §6

[1] = test system: S. pneum. DSM-11865 (PRSP); assay: MIC assay; type: cell-based; conditions: Streptococcus pneumoniae; read-out: MIC S. pneum. DSM-11865 (PRSP)
Protocol: as §1, §2, §3, §4, §5, §6

E. faec. DSM-17050 (VRE) = assay: MIC assay; type: cell-based, Enterococcus faecium; conditions: Enterococcus; read-out: MIC E. faec. DSM-17050 (VRE)
Protocol: as §1, §2, §3, §4, §5, §6

[2] = for T1/2 PLASMA (H): human plasma; for T1/2 PLASMA (M): mouse plasma
Protocol: 2.1 Materials and Methods […]
Determination of in vitro ADME properties
7, 8, 11 and 42. All samples were analysed via HPLC -MS/MS.
HPLC-MS/MS analysis of cystobactamids
AB Sciex QTrap 6500plus mass spectrometer. LC conditions were as follows: column:
Samples were run under acidic
For plasma stability experiments, samples were procured from commercial sources.
Human plasma was obtained from Antibodies-online (catalog no. ABIN5706569), and mouse plasma was obtained from Tebubio (catalog no. D408-04-0050).
The methods were performed in accordance with relevant guidelines and regulations and approved by the Helmholtz Centre for Infection Research. […]

[3] = metabolic stability assay, mouse microsomes; conditions: Table S4
[4] = metabolic stability assay, human microsomes; conditions: second microsome column of Table S4, head prints (M); mouse and human microsomes
ESKAPE strains = assay: MIC-assays on a panel of representative ESKAPE strains, summary in words; type: cell-based; conditions: summary of the MIC tables
Protocol: as §1, §2, §3, §4, §5, §6

| SMILES | MIC (E. ae. CIP 106754) [µg/mL] | MIC (A. baum. ATCC BAA-1710) [µg/mL] | MIC (A. baum. CIP-105742) [µg/mL] | MIC (A. baum. CIP-107292) [µg/mL] | MIC (A. baum. DSM-30008) [µg/mL] | MIC (A. baum. R835) [µg/mL] | MIC (E. cloacae ATCC BAA-2468) [µg/mL] | MIC (E. coli ATCC-25922) [µg/mL] | MIC (E. coli LM705) [µg/mL] | MIC (K. pneum. CIP-104298) [µg/mL] | MIC (K. pneum. KP10581) [µg/mL] | MIC (K. pneum. R-1525) [µg/mL] | MIC (P. ae. PA14) [µg/mL] | MIC (P. ae. PA14ΔmexAB) [µg/mL] | MIC (S. aur. ATCC-29213) [µg/mL] | MIC [1] [µg/mL] | MIC (E. faec. DSM-17050 (VRE)) [µg/mL] | T1/2 PLASMA (H) [2] [h] | T1/2 PLASMA (M) [2] [h] | T1/2 MICROSOMES (M) [3] [h] | also measured |
| --- | --- | --- | --- | --- | --- | --- | --- | --- | --- | --- | --- | --- | --- | --- | --- | --- | --- | --- | --- | --- | --- |
| C#CC[C@H](NC(=O)c1ccc(NC(=O)c2ccc(C#N)cc2)cc1)C(=O)Nc1ccc(C(=O)Nc2ccc(C(=O)Nc3ccc(C(=O)O)cc3)c(F)c2OC(C)C)cc1 [Cmpd. 4] | > 64 | > 8 | 0.25 to 0.5 (≈ 0.315 to 0.629 µM) | > 8 | 0.06 (≈ 0.0755 µM) | > 8 | > 64 | 4 (≈ 5.03 µM) | > 64 | > 64 | > 64 | > 64 | > 64 | > 64 | > 64 | > 64 | 4 (≈ 5.03 µM) | > 4 | > 4 | > 1 | T1/2 MICROSOMES (M) [4]: > 1 h |
| C#CC[C@H](NC(=O)c1ccc(NC(=O)c2ccc(C#N)cc2)cc1)C(=O)Nc1ccc(C(=O)Nc2ccc(C(=O)Nc3ccc(C(=O)O)cc3)c(N)c2OC(C)C)cc1 [Cmpd. 7] | > 64 | > 64 | – | > 64 | – | > 64 | > 64 | 0.005 (≈ 0.00631 µM) | > 64 | – | > 64 | > 64 | – | – | > 64 | 0.2 (≈ 0.253 µM) | > 64 | > 4 | > 4 | > 1 | T1/2 MICROSOMES (M) [4]: > 1 h |
| C#CC[C@H](NC(=O)c1ccc(NC(=O)c2ccc(C#N)cc2)cc1)C(=O)Nc1ccc(C(=O)Nc2ccc(C(=O)Nc3ccc(C(=O)O)cc3)nc2OC(C)C)cc1 [Cmpd. 8] | > 64 | > 64 | – | 8 (≈ 10.3 µM) | – | > 64 | > 64 | ≤ 0.03 | > 64 | – | > 64 | > 64 | – | – | > 64 | – | 0.25 (≈ 0.321 µM) | > 4 | > 4 | > 1 | T1/2 MICROSOMES (M) [4]: > 1 h |
| CO[C@@H](C(N)=O)[C@H](NC(=O)c1ccc(NC(=O)c2ccc(C#N)cc2)cc1)C(=O)Nc1ccc(C(=O)Nc2ccc(C(=O)Nc3ccc(C(=O)O)cc3)c(C(F)F)c2OC(C)C)cc1 [Cmpd. 9] | > 64 | > 8 | > 8 | > 8 | > 8 | > 8 | > 64 | > 8 | > 64 | > 64 | > 64 | > 64 | > 64 | > 64 | > 64 | > 64 | > 64 | – | – | – | antibacterial activity on the pathogen panel, in words (ESKAPE strains): complete elimination of activity |
| C#CC[C@H](NC(=O)c1ccc(NC(=O)c2ccc(C#N)cc2)cc1)C(=O)Nc1ccc(C(=O)Nc2ccc(C(=O)Nc3ccc(C(=O)O)cc3)c(O)c2CC(C)C)cc1 [Cmpd. 11] | > 64 | 0.25 (≈ 0.316 µM) | < 0.03 | > 64 | 1 (≈ 1.26 µM) | > 64 | > 64 | < 0.03 | > 64 | > 64 | 8 (≈ 10.1 µM) | > 64 | > 64 | > 64 | 16 to 32 (≈ 20.2 to 40.5 µM) | > 64 | < 0.03 | > 4 | > 4 | > 1 | T1/2 MICROSOMES (M) [4]: > 1 h |
| C#CC[C@H](NC(=O)c1ccc(NC(=O)c2ccc(C#N)cc2)cc1)C(=O)Nc1ccc(C(=O)Nc2ccc(CNc3ccc(C(=O)O)cc3)c(O)c2OC(C)C)cc1 [Cmpd. 41] | > 64 | 1 to 2 (≈ 1.28 to 2.57 µM) | > 8 | > 8 | > 8 | > 8 | > 64 | > 64 | > 64 | > 64 | > 64 | > 64 | > 64 | > 64 | 16 to 32 (≈ 20.5 to 41.1 µM) | > 64 | 16 to 32 (≈ 20.5 to 41.1 µM) | – | – | – | antibacterial activity on the pathogen panel, in words (ESKAPE strains): inactive |
| C#CC[C@H](NC(=O)c1ccc(NC(=O)c2ccc(C#N)cc2)cc1)C(=O)Nc1ccc(C(=O)Nc2ccc(-c3cn(-c4ccc(C(=O)O)cc4)nn3)c(O)c2OC(C)C)cc1 [Cmpd. 43] | > 64 | > 8 | > 8 | > 8 | > 8 | > 8 | > 64 | > 64 | > 64 | > 64 | > 64 | > 64 | > 64 | > 64 | > 64 | > 64 | > 64 | – | – | – | antibacterial activity on the pathogen panel, in words (ESKAPE strains): inactive |
| C#CC[C@H](NC(=O)c1ccc(NC(=O)c2ccc(C#N)cc2)cc1)C(=O)Nc1ccc(C(=O)Nc2ccc(-c3ccc(C(=O)O)cc3)c(O)c2OC(C)C)cc1 [Cmpd. 44] | > 64 | > 64 | > 64 | > 64 | > 64 | > 64 | > 64 | > 64 | > 64 | > 64 | > 64 | > 64 | > 64 | > 64 | > 64 | > 64 | < 0.03 | – | – | – | antibacterial activity on the pathogen panel, in words (ESKAPE strains): inactive |
